Results as given in patent publication US20250051347A1, “BIFUNCTIONAL CHIMERIC HETEROCYCLIC COMPOUND AND USE THEREOF AS ANDROGEN RECEPTOR DEGRADER” (Hinova Pharmaceuticals, Inc., priority 2021, published 2025).
Like-named read-outs stand apart in the source and are kept apart here.

Legend:
[1] = Pharmacokinetics in mice (plasma exposure after oral administration); format: in vivo; conditions: mouse, ICR mice, oral (i.g.) 3 mg/kg, read-out: After oral administration of 3 mg/kg, mouse plasma exposure AUCinf
Method: • LC-20AD high performance liquid chromatography (SHIMADZU, Japan) • API4000 triple quadrupole mass spectrometer (Applied Biosystem, USA) • Phenix Winnolin Pharmacokinetic software (Version 6.3, Certara, USA) • High speed freezing centrifuge (Thermo Fisher Scientific) • Analytical balance (Sartorius, SECURA225D-ICN) • ICR mice (Chengdu Dossy Experimental Animals CO., LTD.)
A suitable amount of drug was accurately weighed, and then the medium (5% DMSO, 15% HS-15, 80% DSW) was added to prepare the solution at a concentration of 0.1 mg/ml (i.v.) and 0.3 mg/ml (i.g.).
18 healthy adult ICR mice were divided into two groups (9 mice for i.v. group; 9 mice for i.g. group), and administered by tail vein or by gavage after fasting overnight (free drinking water); using the satellite blood collection method, 3 animals were collected at each time point, and then 0.1 ml of blood obtained at different time points was anticoagulated with EDTA-K2, centrifuged at 4° C. for 5 min to separate the plasma, and stored at −80° C. for detection. The sampling time points after i.v. administration were 5 min, 15 min, 0.5 h, 1 h, 2 h, 4 h, 8 h, 12 h, and 24 h; while the sampling time points for i.g. group were before administration (0 h) as well as 0.5 h, 1 h, 2 h, 4 h, 6 h, 8 h, 12 h, and 24 h after administration. Then, the drug concentration in plasma was determined by LC/MS/MS.

[2] = target: T1, androgen receptor (AR) splicing variant AR-v7 (Homo sapiens, UniProt P10275); assay: Degradation activity on androgen receptor splicing variant AR-v7 in 22RV1 cells (ELISA); format: cell-based; conditions: AR-v7 degradation in 22RV1 cells, 48 h, class symbols
T1 construct: The degradation activity of compounds on AR-v7 in 22RV1 cells; host or cells: 22RV1 cells
T1 sequence (P10275 1-644 isoform P10275-3): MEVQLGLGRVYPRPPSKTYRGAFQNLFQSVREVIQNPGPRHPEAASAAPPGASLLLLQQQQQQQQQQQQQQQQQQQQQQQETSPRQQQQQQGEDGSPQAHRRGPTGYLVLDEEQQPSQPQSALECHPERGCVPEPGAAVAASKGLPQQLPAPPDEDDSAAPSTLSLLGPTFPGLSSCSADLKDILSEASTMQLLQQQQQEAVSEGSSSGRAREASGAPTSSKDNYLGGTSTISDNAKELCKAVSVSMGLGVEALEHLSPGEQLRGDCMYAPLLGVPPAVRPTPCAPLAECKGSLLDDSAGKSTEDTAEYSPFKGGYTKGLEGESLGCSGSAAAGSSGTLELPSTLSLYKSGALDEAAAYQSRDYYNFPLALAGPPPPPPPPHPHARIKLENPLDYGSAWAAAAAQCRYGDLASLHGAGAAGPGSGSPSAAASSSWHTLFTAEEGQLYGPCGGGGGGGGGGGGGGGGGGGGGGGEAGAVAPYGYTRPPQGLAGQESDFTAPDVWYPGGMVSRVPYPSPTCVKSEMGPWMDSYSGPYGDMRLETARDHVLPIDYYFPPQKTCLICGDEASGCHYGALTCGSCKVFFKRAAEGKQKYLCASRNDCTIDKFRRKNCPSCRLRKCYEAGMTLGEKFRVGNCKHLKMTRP

[3] = Homo sapiens, 22Rv1, 144 h, read-out: 22RV1 IC50 (nM), 22RV1 cells, 6 days culture, CCK-8, OD 450 nm

IC50 (22RV1 cells; read-out: 22RV1 IC50, 22RV1 cells, 6 days culture, CCK-8, OD 450 nm) | AUC(0-inf) [1] | DC50 [2] | IC50 (22RV1 cells; [3]) | SMILES
17 nM | 5000 to 30000 ng·h/mL | < 10 nM | – | Cc1nc(-c2ncc(Oc3ccc(C(C)c4ccc(O[C@H]5C[C@H](Nc6ccc7c(c6)C(=O)N(C6CCC(=O)NC6=O)C7=O)C5)cc4)cc3)cn2)no1 (stereo partly drawn) [Example 99]
– | 5000 to 30000 ng·h/mL | < 10 nM | 11 nM | Cc1nnc(-c2ccc(Oc3ccc(C(C)(C)c4ccc(O[C@H]5C[C@H](Nc6ccc7c(c6)C(=O)N(C6CCC(=O)NC6=O)C7=O)C5)cc4)cc3)cn2)o1 (stereo partly drawn) [Example 323]
– | 1000 to 5000 ng·h/mL | < 10 nM | 6 nM | Cc1noc(-c2nccc(COc3ccc(C(C)(C)c4ccc(O[C@H]5C[C@@H](Nc6ccc7c(c6)C(=O)N(C6CCC(=O)NC6=O)C7=O)C5)cc4)cc3)n2)n1 (stereo partly drawn) [Example 251]
– | 1000 to 5000 ng·h/mL | < 10 nM | 5 nM | CC1(O)CN(c2nccc(COc3ccc(C(C)(C)c4ccc(O[C@H]5C[C@@H](Nc6ccc7c(c6)C(=O)N(C6CCC(=O)NC6=O)C7=O)C5)cc4)cc3)n2)C1 (stereo partly drawn) [Example 455]
– | 5000 to 30000 ng·h/mL | < 10 nM | 7 nM | C=CC(c1ccc(Oc2cnc(-c3noc(C)n3)nc2)cc1)c1ccc(O[C@H]2C[C@H](Nc3ccc4c(c3)C(=O)N(C3CCC(=O)NC3=O)C4=O)C2)cc1 (stereo partly drawn) [Example 210]
– | 1000 to 5000 ng·h/mL | < 10 nM | 4 nM | CC(C)(c1ccc(Oc2ccc(-n3nccn3)nc2)cc1)c1ccc(O[C@H]2C[C@H](Nc3ccc4c(c3)CN(C3CCC(=O)NC3=O)C4=O)C2)cc1 (stereo partly drawn) [Example 94]
– | 5000 to 30000 ng·h/mL | < 10 nM | 13 nM | C=CC(c1ccc(Oc2cnc(-c3nnc(C)o3)nc2)cc1)c1ccc(O[C@H]2C[C@H](Nc3ccc4c(c3)C(=O)N(C3CCC(=O)NC3=O)C4=O)C2)cc1 (stereo partly drawn) [Example 373, 2-(2,6-dioxopiperidin-3-yl)-5-(((1r,3r)-3-(4-(1-(4-((2-(5-methyl-1,3,4-oxadiazol-2-yl)pyrimidin-5-yl)oxy)phenyl)allyl)phenoxy)cyclobutyl)amino)isoindolin-1,3-dione]
– | 5000 to 30000 ng·h/mL | < 10 nM | 10 nM | CC(O)c1ccc(Oc2ccc(C(C)(C)c3ccc(O[C@H]4C[C@H](Nc5ccc6c(c5)C(=O)N(C5CCC(=O)NC5=O)C6=O)C4)cc3)cc2)nn1 (stereo partly drawn) [Example 125]
– | 5000 to 30000 ng·h/mL | < 10 nM | 10 nM | CC(C)(c1ccc(Oc2ccc(-n3nccn3)nc2)cc1)c1ccc(O[C@H]2C[C@H](Nc3ccc4c(c3)C(=O)N(C3CCC(=O)NC3=O)C4=O)C2)cc1 (stereo partly drawn) [Example 206, 5-((1r,3r)-3-(4-(2-(4-((6-(2H-1,2,3-triazol-2-yl)pyridin-3-yl)oxy)phenyl)propan-2-ylphenoxy)cyclobutyl)amino)-2-(2,6-dioxopiperidin-3-yl)isoindolin-1,3-dione]
– | 5000 to 30000 ng·h/mL | < 10 nM | 2 nM | CC(O)c1ncc(Oc2ccc(C3(c4ccc(O[C@H]5C[C@H](Nc6ccc7c(c6)C(=O)N(C6CCC(=O)NC6=O)C7=O)C5)cc4)CCCCC3)cc2)cn1 (stereo partly drawn) [Example 528]
– | 5000 to 30000 ng·h/mL | < 10 nM | 3 nM | Cc1nnc(-c2cccc(Oc3ccc(C(C)(C)c4ccc(O[C@H]5C[C@H](Nc6ccc7c(c6)C(=O)N(C6CCC(=O)NC6=O)C7=O)C5)cc4)cc3)n2)o1 (stereo partly drawn) [Example 423]
– | 5000 to 30000 ng·h/mL | < 10 nM | 15 nM | CC(C)(c1ccc(Oc2cnc(C#N)nc2)cc1)c1ccc(O[C@H]2C[C@H](Nc3ccc4c(c3)C(=O)N(C3CCC(=O)NC3=O)C4=O)C2)cc1 (stereo partly drawn) [Example 97, 5-(4-(2-(4-((1r,3r)-3-((2-(2,6-dioxopiperidin-3-yl)-1,3-dioxoisoindolin-5-yl)amino)cyclobutyloxy)phenyl)propan-2-yl)phenoxy)pyrimidin-2-carbonitrile]
– | 5000 to 30000 ng·h/mL | 11 to 100 nM | 9 nM | CC(C)(c1ccc(OCc2ccnc(-n3nccn3)n2)cc1)c1ccc(O[C@H]2C[C@@H](Nc3ccc4c(c3)C(=O)N(C3CCC(=O)NC3=O)C4=O)C2)cc1 (stereo partly drawn) [Example 446, 5-(((1s,3s)-3-(4-(2-(4-((2-(2H-1,2,3-triazol-2-yl)pyrimidin-4-yl)methoxy)phenyl)propan-2-yl)phenoxy)cyclobutyl)amino)-2-(2,6-dioxopiperidin-3-yl)isoindolin-1,3-dione]
– | 5000 to 30000 ng·h/mL | < 10 nM | 14 nM | Cc1nc(-c2ncc(Oc3ccc(C4(c5ccc(O[C@H]6C[C@H](Nc7ccc8c(c7)C(=O)N(C7CCC(=O)NC7=O)C8=O)C6)cc5)CC4)cc3)cn2)no1 (stereo partly drawn) [Example 212]
– | 5000 to 30000 ng·h/mL | < 10 nM | 7 nM | C=CC(c1ccc(Oc2ccc(-c3noc(C)n3)nn2)cc1)c1ccc(O[C@H]2C[C@H](Nc3ccc4c(c3)C(=O)N(C3CCC(=O)NC3=O)C4=O)C2)cc1 (stereo partly drawn) [Example 259]
– | 5000 to 30000 ng·h/mL | < 10 nM | 4 nM | CC(C)(c1ccc(Oc2ccc(-n3nccn3)nn2)cc1)c1ccc(O[C@H]2C[C@H](Nc3ccc4c(c3)C(=O)N(C3CCC(=O)NC3=O)C4=O)C2)cc1 (stereo partly drawn) [Example 324]

SMILES | IC50 (22RV1 cells; read-out: 22RV1 IC50, 22RV1 cells, 6 days culture, CCK-8, OD 450 nm) | AUC(0-inf) [1] | DC50 [2] | IC50 (22RV1 cells; [3])
O=C1CCC(N2C(=O)c3ccc(N[C@H]4C[C@H](Oc5ccc(C6(c7ccc(OCc8ccnc(N9CC%10(COC%10)C9)n8)cc7)CCCC6)cc5)C4)cc3C2=O)C(=O)N1 (stereo partly drawn) [Example 360, 5-(((1r,3r)-3-(4-(1-(4-((2-(2-oxa-6-azaspiro[3.3]heptane-6-yl)pyrimidin-4-yl)methoxy)phenyl)cyclopentyl)phenoxy)cyclobutyl)amino)-2-(2,6-dioxopiperidin-3-yl)isoindolin-1,3-dione] | – | 1000 to 5000 ng·h/mL | < 10 nM | 4 nM
CC(C)(c1ccc(Oc2ccnc(N3CC4(COC4)C3)n2)cc1)c1ccc(OC2CC(Nc3ccc4c(c3)C(=O)N(C3CCC(=O)NC3=O)C4=O)C2)cc1 (stereo not drawn) [Example 240, 5-((3-(4-(2-(4-((2-(2-oxa-6-azaspiro[3.3]heptan-6-yl)pyrimidin-4-yl)oxy)phenyl)propan-2-yl)phenoxy)cyclobutyl)amino)-2-(2,6-dioxopiperidin-3-yl)isoindolin-1,3-dione] | – | 1000 to 5000 ng·h/mL | < 10 nM | 12 nM
C=CC(c1ccc(OCc2ccnc(N3CC4(COC4)C3)n2)cc1)c1ccc(O[C@H]2C[C@H](Nc3ccc4c(c3)C(=O)N(C3CCC(=O)NC3=O)C4=O)C2)cc1 (stereo partly drawn) [Example 367] | – | 1000 to 5000 ng·h/mL | < 10 nM | 8 nM
CC(C)(c1ccc(OCc2ccnc(N3CC4(COC4)C3)n2)cc1)c1ccc(O[C@H]2C[C@H](Nc3ccc4c(c3)C(=O)N(C3CCC(=O)NC3=O)C4=O)C2)cc1 (stereo partly drawn) [Example 75] | – | 5000 to 30000 ng·h/mL | < 10 nM | 8 nM
CC(C)(c1ccc(OCc2cnc(N3CC4(COC4)C3)nc2)cc1)c1ccc(O[C@H]2C[C@@H](Nc3ccc4c(c3)C(=O)N(C3CCC(=O)NC3=O)C4=O)C2)cc1 (stereo partly drawn) [Example 193] | – | 1000 to 5000 ng·h/mL | 11 to 100 nM | 36 nM
O=C1CCC(N2C(=O)c3ccc(N[C@H]4C[C@H](Oc5ccc(C6(c7ccc(OCc8ccnc(N9CC%10(COC%10)C9)n8)cc7)COC6)cc5)C4)cc3C2=O)C(=O)N1 (stereo partly drawn) [Example 355, 5-(((1r,3r)-3-(4-(3-(4-((2-(2-oxa-6-azaspiro[3.3]heptane-6-yl)pyrimidin-4-yl)methoxy)phenyl)oxetane-3-yl)phenoxy)cyclobutyl)amino)-2-(2,6-dioxopiperidin-3-yl)isoindolin-1,3-dione] | – | 5000 to 30000 ng·h/mL | < 10 nM | 2 nM
CC(C)(c1ccc(CN2CC(Nc3ccc4c(c3)C(=O)N(C3CCC(=O)NC3=O)C4=O)C2)cc1)c1ccc(OCc2ccnc(N3CC4(COC4)C3)n2)cc1 (stereo not drawn) [Example 502] | – | 1000 to 5000 ng·h/mL | < 10 nM | 12 nM
